Experiments:
DIGSA [1] = experiment: Post-emergence action against DIGSA; format: in vivo, Digitaria sanguinalis; details: dosage 80 g/ha, visual assessment about 3 weeks after treatment vs untreated controls
How it was run: (§1)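 Weeds grown in sandy loam in greenhouse, treated at one-leaf stage (2–3 weeks after sowing) with WP or EC formulations sprayed as aqueous suspension/emulsion at 600 to […] water with 0.2% wetting agent. Visual rating after about 3 weeks versus untreated controls, as % herbicidal action (100% = plants dead, 0% = like control).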

POLCO [2] = experiment: Pre-emergence action against POLCO; format: in vivo, Polygonum convolvulus; details: Dosage 320 g/ha, pre-emergence
How it was run: (§2)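 Seeds sown in sandy loam in wood-fiber pots and covered with soil. Greenhouse growth; visual damage scored after 3 weeks versus untreated controls (100% = dead, 0% = like control).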

VIOTR [3] = experiment: Post-emergence action against VIOTR; format: in vivo, Viola tricolor; details: post-emergence, dosage 80 g/ha
How it was run: as §1

PHBPU [4] = experiment: Post-emergence action against PHBPU; format: in vivo, Pharbitis purpurea; details: post-emergence, dosage 80 g/ha
How it was run: as §1

AMARE [5] = experiment: Post-emergence action against AMARE; format: in vivo, Amaranthus retroflexus; details: post-emergence, dosage 80 g/ha, visual assessment about 3 weeks after treatment vs untreated controls
How it was run: as §1

VIOTR [6] = experiment: Pre-emergence action against VIOTR; format: in vivo, Viola tricolor; details: Dosage 320 g/ha, pre-emergence
How it was run: as §2

PHBPU [7] = experiment: Pre-emergence action against PHBPU; format: in vivo, Pharbitis purpurea; details: Dosage 320 g/ha, pre-emergence
How it was run: as §2

ECHCG [8] = experiment: Post-emergence action against ECHCG; format: in vivo, Echinochloa crus-galli; details: post-emergence, dosage 80 g/ha, visual assessment about 3 weeks after treatment vs untreated controls
How it was run: as §1

HORMU [9] = experiment: Pre-emergence action against HORMU; format: in vivo, Hordeum murinum; details: Dosage 320 g/ha
How it was run: as §2

ABUTH [10] = experiment: Pre-emergence action against ABUTH; format: in vivo, Abutilon theophrasti; details: pre-emergence, dosage 320 g/ha, scored visually after 3 weeks vs untreated controls
How it was run: as §2

POLCO [11] = experiment: Post-emergence action against POLCO; format: in vivo, Polygonum convolvulus; details: post-emergence, dosage 80 g/ha
How it was run: as §1

MATIN [12] = experiment: Pre-emergence action against MATIN; format: in vivo, Matricaria inodora; details: Dosage 320 g/ha, pre-emergence
How it was run: as §2

SETVI [13] = experiment: Post-emergence action against SETVI; format: in vivo, Setaria viridis; details: post-emergence, dosage 80 g/ha, visual assessment about 3 weeks after treatment vs untreated controls
How it was run: as §1

ALOMY [14] = experiment: Post-emergence action against ALOMY; format: in vivo, Alopecurus myosuroides; details: Dosage 80 g/ha, post-emergence
How it was run: as §1

VERPE [15] = experiment: Pre-emergence action against VERPE; format: in vivo, Veronica persica; details: Dosage 320 g/ha, pre-emergence
How it was run: as §2

AVEFA [16] = experiment: Post-emergence action against AVEFA; format: in vivo, Avena fatua; details: post-emergence, dosage 80 g/ha, visual assessment about 3 weeks after treatment vs untreated controls
How it was run: as §1

AMARE [17] = experiment: Pre-emergence action against AMARE; format: in vivo, Amaranthus retroflexus; details: pre-emergence, dosage 320 g/ha, scored visually after 3 weeks vs untreated controls
How it was run: as §2

ABUTH [18] = experiment: Post-emergence action against ABUTH; format: in vivo, Abutilon theophrasti; details: post-emergence, dosage 80 g/ha, visual assessment about 3 weeks after treatment vs untreated controls
How it was run: as §1

VERPE [19] = experiment: Post-emergence action against VERPE; format: in vivo, Veronica persica; details: dosage 80 g/ha
How it was run: as §1

HORMU [20] = experiment: Post-emergence action against HORMU; format: in vivo, Hordeum murinum; details: dosage 80 g/ha
Method: Seeds of monocotyledonous and dicotyledonous weed and crop plants are laid out in sandy loam soil in wood-fiber pots, covered with soil and cultivated in a greenhouse under good growth conditions. 2 to 3 weeks after sowing, the test plants are treated at the one-leaf stage. The compounds of the invention, formulated in the form of wettable powders (WP) or as emulsion concentrates (EC), are then sprayed onto the green parts of the plants in the form of an aqueous suspension or emulsion at a water application rate equating to […], with addition of 0.2% wetting agent. After the test plants have been left to stand in the greenhouse under optimal growth conditions for about 3 weeks, the action of the preparations is assessed visually in comparison to untreated controls (herbicidal action in percent (%): 100% activity=the plants have died, 0% activity=like control plants). […] At the same time, inventive compounds leave Gramineae crops such as barley, wheat, rye, millet/Sorghum, corn or rice virtually undamaged when applied post-emergence, even at high active ingredient dosages. In addition, some substances are also harmless to dicotyledonous crops such as soya, cotton, oilseed rape, sugar beet or potatoes. Some of the compounds according to the invention have high selectivity and are therefore suitable for controlling unwanted vegetation in agricultural crops by the post-emergence method. The data of Tables B18 to B34 below illustrate, in an exemplary manner, the […] herbicidal action of the compounds according to the invention, the herbicidal activity being stated in percent.

ECHCG [21] = experiment: Pre-emergence action against ECHCG; format: in vivo, Echinochloa crus-galli; details: pre-emergence, dosage 320 g/ha, scored visually after 3 weeks vs untreated controls
How it was run: as §2

LOLRI = experiment: Pre-emergence action against LOLRI; format: in vivo, Lolium rigidum; details: dosage 320 g/ha, scored visually after 3 weeks vs untreated controls
How it was run: as §2

SETVI [22] = experiment: Pre-emergence action against SETVI; format: in vivo, Setaria viridis; details: pre-emergence, dosage 320 g/ha, scored visually after 3 weeks vs untreated controls
How it was run: as §2

DIGSA [23] = experiment: Pre-emergence action against DIGSA; format: in vivo, Digitaria sanguinalis; details: dosage 320 g/ha, scored visually after 3 weeks vs untreated controls
How it was run: as §2

AVEFA [24] = experiment: Pre-emergence action against AVEFA; format: in vivo, Avena fatua; details: dosage 320 g/ha, scored visually after 3 weeks vs untreated controls
How it was run: as §2

ALOMY [25] = experiment: Pre-emergence action against ALOMY; format: in vivo, Alopecurus myosuroides; details: dosage 320 g/ha; pre-emergence; scored visually after 3 weeks vs untreated controls; 100% = plants have died, 0% = like control plants
How it was run: as §2

STEME [26] = experiment: Pre-emergence action against STEME; format: in vivo, Stellaria media; details: Dosage 320 g/ha, pre-emergence
How it was run: as §2

STEME [27] = experiment: Post-emergence action against STEME; format: in vivo, Stellaria media; details: post-emergence, dosage 80 g/ha
How it was run: as §1

MATIN [28] = experiment: Post-emergence action against MATIN; format: in vivo, Matricaria inodora; details: post-emergence, dosage 80 g/ha, visual assessment about 3 weeks after treatment vs untreated controls
How it was run: as §1

Compound: CCn1nnnc1NC(=O)c1ccc(C(F)(F)F)c(C(=O)C2CC2)c1C1CC1 [2-233]
- Post-emergence action against DIGSA (herbicidal action in percent) (DIGSA [1]): 90%
- Pre-emergence action against POLCO (POLCO [2]): 90%
- Post-emergence action against VIOTR (VIOTR [3]): 90
- Post-emergence action against PHBPU (PHBPU [4]): 90
- Post-emergence action against AMARE (herbicidal action in percent) (AMARE [5]): 100%
- Pre-emergence action against VIOTR (VIOTR [6]): 100%
- Pre-emergence action against PHBPU (PHBPU [7]): 100%
- Post-emergence action against ECHCG (herbicidal action in percent) (ECHCG [8]): 90%
- Pre-emergence action against HORMU (HORMU [9]): 90%
- Pre-emergence action against ABUTH (herbicidal activity) (ABUTH [10]): 100%
- Post-emergence action against POLCO (POLCO [11]): 80
- Pre-emergence action against MATIN (MATIN [12]): 100%
- Post-emergence action against SETVI (herbicidal action in percent) (SETVI [13]): 90%
- Post-emergence action against ALOMY (ALOMY [14]): 90%
- Pre-emergence action against VERPE (VERPE [15]): 100%
- Post-emergence action against AVEFA (herbicidal action in percent) (AVEFA [16]): 90%
- Pre-emergence action against AMARE (herbicidal activity) (AMARE [17]): 100%
- Post-emergence action against ABUTH (herbicidal action in percent) (ABUTH [18]): 100%
- Post-emergence action against VERPE (VERPE [19]): 100
- Post-emergence action against HORMU (HORMU [20]): 90
- Pre-emergence action against ECHCG (herbicidal activity) (ECHCG [21]): 100%
- Pre-emergence action against LOLRI (herbicidal activity) (LOLRI): 90%
- SETVI (Table B8, pre-emergence herbicidal activity) (SETVI [22]): 100%
- Pre-emergence action against DIGSA (herbicidal activity) (DIGSA [23]): 100%
- Pre-emergence action against AVEFA (herbicidal activity) (AVEFA [24]): 100%
- Pre-emergence action against ALOMY (herbicidal activity in percent) (ALOMY [25]): 100%
- Pre-emergence action against STEME (STEME [26]): 100%
- Post-emergence action against STEME (STEME [27]): 90
- Post-emergence action against MATIN (herbicidal action in percent) (MATIN [28]): 90%

From patent publication US11051515B2, “3-acyl-benzamides and their use as herbicides” (Bayer Aktiengesellschaft, priority 2017, dated 2021)
